Assay results reported in PMC3871636 (PLoS ONE, 2013).
Counter-ions that a name gives are not always drawn.

Tests used:
CYP3A4(C64/C121) mutant = CYP3A4(C64/C121) mutant (Homo sapiens, UniProt P08684, A121C/C239S/C377S/C468A/C98S/S18F); assay: Ligand-induced spin shift, absorbance titration
Procedure: (§1) All absorbance and fluorescence assays (including the time-resolved fluorescence measurements) were performed at a protein concentration ≤1 µM at 25°C with continuous stirring. Absorbance spectra were recorded with an S2000 rapid scanning CCD spectrometer (Ocean Optics). Ligand binding assays were done in 100 mM Na-Hepes buffer, pH 7.4, containing 0.5 mM EDTA.
(§2) Absorbance spectra obtained in titration experiments were analyzed with a principal component analysis (PCA) procedure complemented with least-square approximation of the principal vectors with a combination of the prototypical spectra of the CYP3A4 low-spin, high-spin and Type II-substrate-bound ferric CYP3A4 P450 states as described, [31].
(§3) When fitting the results of titration experiments, where the changes in the monitored signal A S (fraction of the enzyme in the high-spin state, intensity or the lifetime of the donor phosphorescence at a given substrate concentration) were assumed to be proportional to [ES], this equation was complemented with the offset A 0 and the scaling factor A max to yield the following relationship: [drawing 5] (Eq.5)

[1] = molecular target: wild type CYP3A4 (N-terminally truncated Δ3-12, S18F) (Homo sapiens, UniProt P08684, S18F); assay: Ligand-induced spin shift, absorbance titration
Procedure: as §1, §2, §3

[2] = molecular target: CYP3A4 (double-labeled C64/C468-DY/ER) (Homo sapiens, UniProt P08684, form not given/S18F); assay: Ligand-induced spin shift, absorbance titration; assay type: binding; conditions: human, purified double-labeled CYP3A4 C64/C468-DY/ER protein, pH 7.4; read-out: K D or S 50
How it was run: (§4)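 Ligand binding monitored by absorbance titration at ≤1 µM protein, 25°C with stirring, in 100 mM Na-Hepes pH 7.4 with 0.5 mM EDTA. Spectra were resolved by PCA into low-spin, high-spin and Type II-bound ferric states; high-spin fraction versus ligand concentration was fitted with offset and scaling factor.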

CYP3A4(C377/C468) mutant = CYP3A4(C377/C468) mutant (Homo sapiens, UniProt P08684, S18F, form not given); assay: Ligand-induced spin shift, absorbance titration; assay type: binding; conditions: C377/C468
How it was run: as §4

CYP3A4(C64/C468) mutant = CYP3A4(C64/C468) mutant (Homo sapiens, UniProt P08684, S18F, form not given); assay: Ligand-induced spin shift, absorbance titration; assay type: binding; conditions: C64/C468
How it was run: as §4

[3] = molecular target: double-labeled CYP3A4 C64/C468-DY/ER (Homo sapiens, UniProt P08684, S18F, form not given); assay: Ligand-induced spin shift, absorbance titration; assay type: binding; conditions: (C64/C468)-DY/ER
How it was run: as §4

[4] = molecular target: CYP3A4 (double-labeled (C64/C468)-ER/DY) (Homo sapiens, UniProt P08684, form not given/S18F); assay: Steady-state LRET titration (delayed emission); assay type: binding; conditions: human, purified double-labeled CYP3A4 (C64/C468)-ER/DY protein, pH 7.4; (C64/C468)-ER/DY; LRET titration; read-out: K d, steady-state fluorescence
How it was run: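 Protein at ≤1 µM, 25°C, stirred, in 100 mM Na-Hepes pH 7.4 with 0.5 mM EDTA, kept anaerobic with a protocatechuate-3,4-dioxygenase/protocatechuic acid scavenger. Delayed emission (100 µs delay) recorded from 650 to 860 nm at 540 nm excitation, with PCA-resolved donor/acceptor intensities giving LRET efficiency and distances (κ² 0.667, n 1.4). Titration signals fitted to a binding equation with offset and scaling terms.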

[5] = molecular target: double-labeled CYP3A4 (C64/C468)-DY/ER (Homo sapiens, UniProt P08684, S18F, form not given); assay: Time-resolved LRET (phosphorescence lifetime measurements); conditions: for ΔELT (change in LRET efficiency), lifetime measurements / ΔR (change in interprobe distance), lifetime measurements / τ1 (phosphorescence decay time with ligand) / F1 (fraction of first exponential) / τ2 (phosphorescence decay time with ligand) / τav (average phosphorescence lifetime with ligand): (C64/C468)-DY/ER; for ΔELT (change in LRET efficiency), lifetime measurements / ΔR (change in interprobe distance), lifetime measurements: nearly-saturating ligand: ANF 100 µM, bromocriptine 2.5 µM, cholesterol 50 µM; for ΔELT (change in LRET efficiency), lifetime measurements / ΔR (change in interprobe distance), lifetime measurements / τ1 (phosphorescence decay time with ligand) / E (LRET efficiency with ligand), lifetime measurements: testosterone 100 µM; for τ1 (phosphorescence decay time with ligand) / F1 (fraction of first exponential) / τ2 (phosphorescence decay time with ligand) / τav (average phosphorescence lifetime with ligand): Table S1; for τ1 (phosphorescence decay time with ligand) / E (LRET efficiency with ligand), lifetime measurements: 1-PB 40 µM, ANF 100 µM, BCT 2.5 µM, cholesterol 100 µM; for τ1 (phosphorescence decay time with ligand): bi-exponential fit; for F1 (fraction of first exponential) / τ2 (phosphorescence decay time with ligand) / τav (average phosphorescence lifetime with ligand) / R (interprobe distance with ligand), lifetime measurements / ΔR, lifetime measurements: same ligand concentrations; for E (LRET efficiency with ligand), lifetime measurements / R (interprobe distance with ligand), lifetime measurements / ΔR, lifetime measurements: Table S2, C64/C468-DY/ER
From the text: (§5) The excitation wavelength was set to 540 nm.

[6] = molecular target: double-labeled CYP3A4 (C64/C468)-ER/DY (Homo sapiens, UniProt P08684, S18F, form not given); assay: as above; conditions: for ΔELT (change in LRET efficiency), lifetime measurements / ΔR (change in interprobe distance), lifetime measurements / τ1 (phosphorescence decay time with ligand) / F1 (fraction of first exponential) / τ2 (phosphorescence decay time with ligand) / τav (average phosphorescence lifetime with ligand): (C64/C468)-ER/DY; for ΔELT (change in LRET efficiency), lifetime measurements / ΔR (change in interprobe distance), lifetime measurements: nearly-saturating ligand: ANF 100 µM, bromocriptine 2.5 µM, cholesterol 50 µM; for ΔELT (change in LRET efficiency), lifetime measurements / ΔR (change in interprobe distance), lifetime measurements / τ1 (phosphorescence decay time with ligand) / E (LRET efficiency with ligand), lifetime measurements: testosterone 100 µM; for τ1 (phosphorescence decay time with ligand) / F1 (fraction of first exponential) / τ2 (phosphorescence decay time with ligand) / τav (average phosphorescence lifetime with ligand): Table S1; for τ1 (phosphorescence decay time with ligand) / E (LRET efficiency with ligand), lifetime measurements: 1-PB 40 µM, ANF 100 µM, BCT 2.5 µM, cholesterol 100 µM; for τ1 (phosphorescence decay time with ligand): bi-exponential fit; for F1 (fraction of first exponential) / τ2 (phosphorescence decay time with ligand) / τav (average phosphorescence lifetime with ligand) / R (interprobe distance with ligand), lifetime measurements / ΔR, lifetime measurements: same ligand concentrations; for E (LRET efficiency with ligand), lifetime measurements / R (interprobe distance with ligand), lifetime measurements / ΔR, lifetime measurements: Table S2, C64/C468-ER/DY
From the text: as §5

[7] = molecular target: CYP3A4 (double-labeled C64/C468-ER/DY) (Homo sapiens, UniProt P08684, form not given/S18F); assay: Ligand-induced spin shift, absorbance titration; assay type: binding; conditions: human, purified double-labeled CYP3A4 C64/C468-ER/DY protein, pH 7.4; read-out: K D or S 50
How it was run: as §4

[8] = molecular target: double-labeled CYP3A4 C64/C468-ER/DY (Homo sapiens, UniProt P08684, S18F, form not given); assay: Ligand-induced spin shift, absorbance titration; assay type: binding; conditions: (C64/C468)-ER/DY
How it was run: as §4

[9] = molecular target: CYP3A4 (double-labeled C377/C468-DY/ER) (Homo sapiens, UniProt P08684, form not given/S18F); assay: Ligand-induced spin shift, absorbance titration; assay type: binding; conditions: purified double-labeled CYP3A4 C377/C468-DY/ER protein, pH 7.4, read-out: K D or S 50
How it was run: as §4

Chain of CYP3A4(C64/C121) mutant (P08684 with tags, fused parts or gaps S18F/C98S/A121C/C239S/C377S/C468A limits assumed): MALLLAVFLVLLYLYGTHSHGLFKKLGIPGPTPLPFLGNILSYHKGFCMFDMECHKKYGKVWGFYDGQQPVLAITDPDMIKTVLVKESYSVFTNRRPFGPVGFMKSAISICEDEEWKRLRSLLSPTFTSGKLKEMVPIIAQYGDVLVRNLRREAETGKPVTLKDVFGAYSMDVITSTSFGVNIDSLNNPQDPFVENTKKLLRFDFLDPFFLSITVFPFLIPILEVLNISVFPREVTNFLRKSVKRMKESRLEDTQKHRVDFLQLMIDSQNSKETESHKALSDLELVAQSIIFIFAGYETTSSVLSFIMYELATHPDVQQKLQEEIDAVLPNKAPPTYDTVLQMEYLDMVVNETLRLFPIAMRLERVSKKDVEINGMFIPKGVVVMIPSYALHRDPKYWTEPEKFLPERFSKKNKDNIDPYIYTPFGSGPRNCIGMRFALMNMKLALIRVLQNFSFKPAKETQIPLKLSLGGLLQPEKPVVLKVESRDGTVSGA
Chain of double-labeled CYP3A4 (C64/C468)-ER/DY (P08684 13-503 S18F, form open): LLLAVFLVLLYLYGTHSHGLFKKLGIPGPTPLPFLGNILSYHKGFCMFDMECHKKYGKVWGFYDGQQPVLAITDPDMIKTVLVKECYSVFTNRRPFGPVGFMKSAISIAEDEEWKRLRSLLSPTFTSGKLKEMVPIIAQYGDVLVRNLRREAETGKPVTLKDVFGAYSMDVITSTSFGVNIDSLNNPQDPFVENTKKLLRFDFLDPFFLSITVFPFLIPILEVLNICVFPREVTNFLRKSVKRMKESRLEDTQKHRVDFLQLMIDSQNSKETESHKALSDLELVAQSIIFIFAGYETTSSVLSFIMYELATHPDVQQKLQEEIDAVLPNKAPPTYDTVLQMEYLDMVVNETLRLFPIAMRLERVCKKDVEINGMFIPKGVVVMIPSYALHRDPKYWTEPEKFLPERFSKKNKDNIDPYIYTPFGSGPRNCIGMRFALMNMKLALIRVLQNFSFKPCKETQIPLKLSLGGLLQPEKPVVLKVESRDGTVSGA
Chain of CYP3A4(C64/C468) mutant (P08684 13-503 S18F, form open): as above
Chain of double-labeled CYP3A4 (C64/C468)-DY/ER (P08684 13-503 S18F, form open): as above
Chain of CYP3A4(C377/C468) mutant (P08684 13-503 S18F, form open): as above
Chain of wild type CYP3A4 (N-terminally truncated Δ3-12, S18F) (P08684 with tags, fused parts or gaps S18F): as the sequence (P08684 with tags, fused parts or gaps S18F/C98S/A121C/C239S/C377S/C468A limits assumed) above, with S88C, C111A, S229C, S367C, A458C counted along it
Chain of double-labeled CYP3A4 C64/C468-ER/DY (P08684 13-503 S18F, form open): as the sequence (P08684 13-503 S18F, form open) above
Chain of CYP3A4 (double-labeled C64/C468-ER/DY) (P08684 13-503 S18F, form open): as above
Chain of double-labeled CYP3A4 C64/C468-DY/ER (P08684 13-503 S18F, form open): as above
Chain of CYP3A4 (double-labeled C64/C468-DY/ER) (P08684 13-503 S18F, form open): as above
Chain of CYP3A4 (double-labeled (C64/C468)-ER/DY) (P08684 13-503 S18F, form open): as above
Chain of CYP3A4 (double-labeled C377/C468-DY/ER) (P08684 13-503 S18F, form open): as above

| Structure (SMILES) | Kd (CYP3A4(C64/C121) mutant) [µM] | Kd [1] [µM] | Nh (Hill coefficient) (CYP3A4(C377/C468) mutant) | ΔF HS (amplitude of ligand-induced spin shift) (CYP3A4(C377/C468) mutant) [%] | Nh (Hill coefficient) (CYP3A4(C64/C468) mutant) | ΔF HS (amplitude of ligand-induced spin shift) (CYP3A4(C64/C468) mutant) [%] | ΔR (change in interprobe distance), lifetime measurements [5] [Å] | τ1 (phosphorescence decay time with ligand) [5] [µs] | F1 (fraction of first exponential) [5] [%] | τ2 (phosphorescence decay time with ligand) [5] [µs] | τav (average phosphorescence lifetime with ligand) [5] [µs] | R (interprobe distance with ligand), lifetime measurements [5] [Å] | ΔR, lifetime measurements [5] [Å] | ΔR (change in interprobe distance), lifetime measurements [6] [Å] | τ1 (phosphorescence decay time with ligand) [6] [µs] | F1 (fraction of first exponential) [6] [%] | τ2 (phosphorescence decay time with ligand) [6] [µs] | τav (average phosphorescence lifetime with ligand) [6] [µs] | R (interprobe distance with ligand), lifetime measurements [6] [Å] | ΔR, lifetime measurements [6] [Å] | also measured |
| --- | --- | --- | --- | --- | --- | --- | --- | --- | --- | --- | --- | --- | --- | --- | --- | --- | --- | --- | --- | --- | --- |
| O=c1cc(-c2ccccc2)oc2c1ccc1ccccc12 [ANF, α-naphthoflavone] | 8.6 ± 1.6 | 7.4 ± 1.6 | 1.4±0.2 | 24±12 | 1.8±0.2 | 39±8 | 1.8±0.7 | 54 ± 1 | 45 ± 5 | 231 ± 15 | 154 ± 4 | 38.6 ± 0.5 | 1.8 ± 0.5 | 4.1±0.2 | 53 ± 2 | 34 ± 1 | 216 ± 3 | 168 ± 1 | 40.4 ± 0.1 | 4.1 ± 0.1 | Nh (Hill coefficient) (CYP3A4(C64/C121) mutant; human, pH 7.4): 1.3±0.4; ΔF HS (amplitude of ligand-induced spin shift) (CYP3A4(C64/C121) mutant; human, pH 7.4): 19±4%; Nh (Hill coefficient) ([1]; human, pH 7.4): 1.9±0.3; ΔF HS (amplitude of ligand-induced spin shift) ([1]; human, pH 7.4): 41±1%; Kd [2]: 4.2 ± 0.9 µM; Nh (Hill coefficient) [3]: 1.5±0.1; ΔF HS (amplitude of ligand-induced spin shift) [3]: 13±1%; Kd [4]: 17.3 ± 7.2 µM; ΔELT (change in LRET efficiency), lifetime measurements [5]: −6.8±3%; E (LRET efficiency with ligand), lifetime measurements [5]: 34 ± 2%; ΔELT (change in LRET efficiency), lifetime measurements [6]: −14.5±1%; E (LRET efficiency with ligand), lifetime measurements [6]: 28 ± 1% |
| OCCCCc1ccc2ccc3cccc4ccc1c2c34 [1-PB, 1-pyrenebutanol] | 16 ± 8 | 9.5 ± 0.9 | 1.2±0.2 | 29±9 | 1.2±0.1 | 43±5 | −0.9±0.1 | 53 ± 1 | 46 ± 3 | 195 ± 7 | 129 ± 1 | 35.8 ± 0.1 | -0.9 ± 0.1 | 0.4±0.1 | 63 ± 2 | 60 ± 8 | 241 ± 5 | 138 ± 4 | 36.7 ± 0.1 | 0.4 ± 0.1 | Nh (Hill coefficient) (CYP3A4(C64/C121) mutant; C64/C121): 1.3±0.5; ΔF HS (amplitude of ligand-induced spin shift) (CYP3A4(C64/C121) mutant; C64/C121): 17±10%; Nh (Hill coefficient) ([1]; W/T): 1.6±0.4; ΔF HS (amplitude of ligand-induced spin shift) ([1]; W/T): 50±1%; Kd [7]: 5.4 ± 2.1 µM; Nh (Hill coefficient) [8]: 1.3±0.1; ΔF HS (amplitude of ligand-induced spin shift) [8]: 18±2%; ΔELT (change in LRET efficiency), lifetime measurements [5]: +3.8±1%; E (LRET efficiency with ligand), lifetime measurements [5]: 45 ± 1%; ΔELT (change in LRET efficiency), lifetime measurements [6]: −1.5±1%; E (LRET efficiency with ligand), lifetime measurements [6]: 41 ± 1% |
| CC(C)C[C@H]1C(=O)N2CCC[C@H]2[C@]2(O)O[C@](NC(=O)[C@@H]3C=C4c5cccc6[nH]c(Br)c(c56)C[C@H]4N(C)C3)(C(C)C)C(=O)N12 [Bromocriptine, Bromocriptine mesylate] |  |  |  |  |  |  | 0.3±1.0 | 55 ± 9 | 44 ± 5 | 209 ± 20 | 141 ± 7 | 37.1 ± 0.8 | 0.3 ± 0.8 | −0.3±0.6 | 39 ± 12 | 28 ± 5 | 168 ± 2 | 131 ± 5 | 36.0 ± 0.5 | -0.3 ± 0.5 | Kd [9]: 0.93 ± 0.6 µM; Kd [7]: 0.28 ± 0.1 µM |
